Assay results from US7511123B2, “Immuno-interactive fragments of the alpha-C subunit of inhibin” (Prince Henry's Institute of Medical Research, priority 1999, dated 2009).

Tests used:
As #128 [1] = test: Solid phase assay (Assay 1): biotinylated peptides binding to As #128; design: species or system sheep; key: +++++ major contribution; + minor contribution; details: relative contribution
Summary of the method: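 The 31 biotinylated peptides were captured on streptavidin-coated wells for 2 h at room temperature, then incubated with ovine antiserum #41 or #128 for 2 h at room temperature. Bound antiserum was detected with HRP-labelled anti-ovine IgG and a colorimetric substrate read spectrophotometrically; the signal is proportional to peptide binding.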

As #41 [2] = test: RIA (Assay 2): competition with iodinated inhibin for As #41; type: binding, sheep
Summary of the method: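 Graded doses of peptide or hr-inhibin standard competed with iodinated human recombinant 30 kDa inhibin tracer for the sheep antiserum at a set dilution, overnight at 4°C. Bound tracer was precipitated with goat anti-sheep IgG and gamma-counted. ED50 is the dose producing 50% loss of tracer binding.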

As #1989 = test: RIA (Assay 2): competition with iodinated inhibin for As #1989; type: binding, rabbit
Summary of the method: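 Radioimmunoassay measuring how well peptides compete with iodinated 30 kDa human recombinant inhibin tracer for binding to antiserum #1989. Graded doses of peptide, iodinated inhibin and diluted antiserum were incubated overnight at 4° C. Antibody-bound tracer was precipitated with goat anti-sheep IgG serum and counted in a gamma counter. The ED50, the peptide concentration halving tracer binding, indicated affinity.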

As #41 [3] = test: Competitive 2-site assay (Assay 3), approach (b); type: binding, sheep; details: biotinylated peptide pools or peptides incubated with iodinated As #41
From the text: This assay was developed to establish the relative importance of the individual peptides and peptide pools (identified as epitopes in Assays 1 and 2) in the sandwich antibody format used in the IFMA with As #128 as capture antibody and As #41 as detection antibody. Two approaches (a and b) were considered, Approach (a) explores the cross-reaction of peptides with inhibin for the immobilized As #128 while Approach (b) assesses their cross-reaction with inhibin for As #41.
Approach (b). In this approach, the competition of peptides with the As #41 antiserum using the sandwich antibody format was assessed. Hr-Inhibin was initially incubated with the As #128 coated wells for 1 hour at room temperature. The biotinylated peptide pools and/or individual peptides were incubated together with iodinated As #41 for 1 hour and then added to the inhibin bound As #128 coated plates and incubated for 2 hours at room temperature. Plates were then washed to remove any unbound material and the resulting activity was measured in the gamma counter.

As #128 [4] = test: Two-site assay design: peptides pre-incubated with As #128 coated plate; type: binding, sheep; details: non-biotinylated peptides 0.1-1 micromolar
Procedure: On the other hand, the IFMA design is based on the total amount of inhibin bound which is a combination of both antibody affinity and concentration. In order to establish to what extent epitopes to these peptides contribute to the overall IFMA, the following two-site assay designs were used.
(i) Peptides #5, #20 and #30 (0, 0.1-1 micromolar) were incubated with the As #128 coated plate for 1.5 hours at RT and the wells washed. The highest dose of peptide used was saturating.
(ii) Hr-Inhibin was then added as a saturating or near saturating dose to the As #128 coated plate and incubated for 2 hours at room temperature and the plate washed.
(iii) Biotinylated As #41 was added to the above wells and incubated for 2 hours at RT. Plates were then washed and counted.

As#128 and/or As#41 = test: Inhibin IFMA with pre-immunoabsorption of antisera by peptides; type: binding, sheep
From the text: This IFMA is used in the measurement of inhibin in serum from women with ovarian cancer and is presented at this juncture as a reference to the following procedures. The IFMA is a sandwich antibody assay in 96-well microtiter plates. The capture antiserum is As #128 and the labeled antiserum As #41, both raised in sheep to the alpha subunit of human inhibin. Sheep As #128 was also boosted with human recombinant 30-kDa inhibin. The microtiter plates were coated with a caprylic acid IgG cut of antiserum #128. Inhibin standard and serum samples were added and incubated for 2 hours at room temperature. A biotinylated antiserum (As #41) which has been immunopurified by absorption to a column of bovine (alpha)C subunit fusion protein (as previously described, Robertson et al., 1997, supra) followed by elution with a glycine (pH 2.5) buffer, was added to bind to the antibody-bound inhibin (2-hour incubation at room temperature). Fluorescently (Eu) labeled-streptavidin that has a high affinity for biotin is added (30 minutes at room temperature) and the Eu-bound streptavidin is counted in a time-resolved fluorimeter. The Eu measured is proportional to the inhibin bound by the two antisera.
As another approach, the competition of combinations of peptides at a maximum saturating dose was assessed in the IFMA (FIGS. 7-9). […] This suppression in binding provides a measure of the contribution of that particular epitope to the assay.

As#41 = test: Sandwich assay with As#41 as both coating and labeled antibody, no inhibin; type: binding, sheep; details: peptide added to both coating and labeled As#41
From the text: It has not been established if the same antibodies are present in As #128.

PO-22 = test: RIA of Set 2 peptides with PO-22; type: binding, mouse; details: Set 2 biotinylated peptides 0.8 and 0.08 micromoles/L
Procedure: (§1) The binding of the 41 biotinylated peptides as set forth in Table 7 (peptide set 2) to the mouse monoclonal antibodies (PO# series) was assessed as follows: b) Assay 2 (radioimrnunoassay, RIA) using iodinated human inhibin A as tracer. Mabs (at an appropriate dilution, see above) were incubated with iodinated human recombinant inhibin in the presence of biotinylated peptides (0.8 and 0.08 micromoles/L final concentration) overnight at room temperature.

R1 = test: RIA of Set 2 peptides with R1; type: binding, mouse; design: key: ΦΦΦ strong effect; +, Φ weak effect; a) limited binding; details: Set 2 biotinylated peptides 0.8 and 0.08 micromoles/L
Procedure: as §1

[5] = biotinylated peptides, 50% fall in binding of iodinated inhibin
[6] = non-biotinylated peptides, hr-inhibin A as standard

#128 Antibody screen Assay 1 (As #128 [1]): + | blocking of As #41 binding to the inhibin-As#128 complex (As #41 [3]): 50% | suppression in binding with As #128 (As #128 [4]): 65% | binding in the absence of inhibin (As#41): significant binding
Substance: SGSG WSPSALRLLQRPPE [Peptide 5]
As#41 ED50 (As #41 [2]; [5]): 0.015 nM | cross-reaction with hr-inhibin for As #41 in RIA (As #41 [2]; in words): cross-reacted strongly | ED50 values As#41 (As #41 [2]; [6]): 0.4 nM | As#1989 ED50 (As #1989; [5]): >2500 nM | ED50 values As#1989 (As #1989; [6]): >10000 nM | % suppression at 2ng inhibin (As#128 and/or As#41; As#41 label pre-absorbed with peptide, As#128 coating antibody: buffer): 67% | % suppression at 2ng inhibin (As#128 and/or As#41; As#128 coating antibody pre-absorbed with peptide(s), As#41 label: buffer): 55% | % suppression at 2ng inhibin (As#128 and/or As#41; both antisera pre-absorbed, label gives peptide(s) on As#128 coating first, then on As#41 label): 73% | PO-22 RIA (PO-22): ΦΦ | R1 RIA (R1): ΦΦΦ
